Molecular target: PI3Kα (alpha) (Homo sapiens (Human), UniProt P42336)
Assay: p110α (alpha) PI3K Binding Assay (ADP-Glo lipid kinase reaction)
Format: biochemical
Conditions: PI3K alpha 0.2 nM, ATP 40 μM, PIP2:3PS 50 μM, 120 min, room temperature; Ki by Morrison Equation; read-out: PI3Kα-(alpha) ATP (Ki) micromolar
Experimental: The ability of a compound of the invention to act as an inhibitor of PI3Kα was determined using the methods of Example 901.
PI3K Binding assays are intended for determining the biochemical potency of small molecule PI3K inhibitors. The PI3K lipid kinase reaction is performed in the presence of PIP2:3PS lipid substrate (Promega #V1792) and ATP. Following the termination if the kinase reaction, turnover of ATP to ADP by the phosphorylation of the lipid substrate is detected using the Promega ADP-Glo™ (Promega #V1792) assay. Reactions are carried out using the following conditions:
After 120 minutes of reaction time, the kinase reaction is terminated. Any ATP remaining after the reaction is depleted, leaving only ADP. Then the Kinase Detection Reagent is added to convert ADP to ATP, which is used in a coupled luciferin/luciferase reaction. The luminescent output is measured and is correlated with kinase activity.
All reactions are carried out at room temperature. A 3 μl mixture (1:1) of enzyme/lipid substrate solution is added to a 384 well white assay plate (Perkin Elmer #6007299) containing 50 nl of test compound or DMSO only for untreated controls. The reaction is started by the addition of 2 μl ATP/MgCl2. The kinase reaction buffer contains 50 mM HEPES, 50 mM NaCl, 3 mM MgCl2, 0.01% BSA, 1% DMSO, and enzyme and substrate concentrations as indicated in the above table. The reaction is stopped by the addition of 10 μL ADP-Glo reagent. Plates are read in a Perkin Elmer Envision system using luminescence mode. 10 point dose response curves are generated for each test compound. Ki values for each compound are determined using the Morrison Equation.

Sequence of PI3Kα (alpha) (P42336 whole entry): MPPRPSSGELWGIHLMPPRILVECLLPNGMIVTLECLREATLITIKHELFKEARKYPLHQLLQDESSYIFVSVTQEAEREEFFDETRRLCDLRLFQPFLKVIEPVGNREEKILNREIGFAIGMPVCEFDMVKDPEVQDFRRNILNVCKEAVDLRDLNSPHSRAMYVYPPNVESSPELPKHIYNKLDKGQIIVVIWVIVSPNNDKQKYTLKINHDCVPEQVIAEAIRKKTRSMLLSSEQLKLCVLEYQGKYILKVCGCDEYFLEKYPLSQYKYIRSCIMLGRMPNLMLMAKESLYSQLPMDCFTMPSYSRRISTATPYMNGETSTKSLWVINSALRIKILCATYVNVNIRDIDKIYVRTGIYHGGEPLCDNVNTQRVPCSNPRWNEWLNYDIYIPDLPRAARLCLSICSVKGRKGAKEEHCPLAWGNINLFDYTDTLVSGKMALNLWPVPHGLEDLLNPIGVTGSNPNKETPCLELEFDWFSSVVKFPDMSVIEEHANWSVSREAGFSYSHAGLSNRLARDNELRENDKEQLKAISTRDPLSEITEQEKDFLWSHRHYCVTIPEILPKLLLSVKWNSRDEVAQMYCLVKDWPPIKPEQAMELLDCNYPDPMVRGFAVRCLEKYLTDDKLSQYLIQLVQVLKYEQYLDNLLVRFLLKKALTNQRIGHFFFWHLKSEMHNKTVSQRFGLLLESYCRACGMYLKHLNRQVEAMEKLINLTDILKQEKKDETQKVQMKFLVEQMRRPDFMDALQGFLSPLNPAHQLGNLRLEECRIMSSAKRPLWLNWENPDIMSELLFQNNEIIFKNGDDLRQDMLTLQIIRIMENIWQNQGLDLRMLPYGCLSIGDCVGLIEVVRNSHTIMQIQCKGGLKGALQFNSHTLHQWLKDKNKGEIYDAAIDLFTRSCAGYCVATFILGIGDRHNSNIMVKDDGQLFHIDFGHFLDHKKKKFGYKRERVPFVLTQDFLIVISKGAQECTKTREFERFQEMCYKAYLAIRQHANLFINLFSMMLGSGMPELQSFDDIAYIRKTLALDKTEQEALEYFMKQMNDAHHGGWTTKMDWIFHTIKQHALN
Sequence of PI3Kα (alpha) (P27986 whole entry partner): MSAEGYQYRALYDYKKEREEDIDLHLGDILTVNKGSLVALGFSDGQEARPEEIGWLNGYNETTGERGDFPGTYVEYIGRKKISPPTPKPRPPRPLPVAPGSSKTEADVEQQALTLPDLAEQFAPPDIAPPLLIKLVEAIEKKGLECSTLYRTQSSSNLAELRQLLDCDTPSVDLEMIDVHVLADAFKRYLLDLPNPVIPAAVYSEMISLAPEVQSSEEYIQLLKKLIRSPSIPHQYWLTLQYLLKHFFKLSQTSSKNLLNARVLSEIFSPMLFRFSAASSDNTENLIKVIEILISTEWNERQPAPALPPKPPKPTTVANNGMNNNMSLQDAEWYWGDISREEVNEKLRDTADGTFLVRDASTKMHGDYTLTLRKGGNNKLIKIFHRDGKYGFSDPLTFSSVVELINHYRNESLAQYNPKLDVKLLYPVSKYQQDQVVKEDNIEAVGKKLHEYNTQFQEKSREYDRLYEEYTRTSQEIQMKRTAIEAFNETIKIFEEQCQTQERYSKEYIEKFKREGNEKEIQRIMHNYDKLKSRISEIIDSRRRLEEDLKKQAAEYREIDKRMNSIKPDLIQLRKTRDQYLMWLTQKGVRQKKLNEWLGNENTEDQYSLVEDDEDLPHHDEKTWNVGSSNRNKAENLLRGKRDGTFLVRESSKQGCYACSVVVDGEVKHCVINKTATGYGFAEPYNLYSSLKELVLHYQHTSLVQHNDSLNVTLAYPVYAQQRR

| Compound | Ki [nM] |
| --- | --- |
| C[C@@H]1Cn2c(-c3ccc4oc(N)nc4c3)nc3cc(O[C@H](C)C(N)=O)cc(c32)O1 [Example 251, (R)-2-(((R)-2-(2-Aminobenzo[d]oxazol-5-yl)-4-methyl-3,4-dihydro-5-oxa-1,2a-diazaacenaphthylen-7-yl)oxy)propanamide] | 2.27 |
| Cc1ccncc1-c1nc2cc(N[C@H](C(N)=O)C3CC3)cc3c2n1CCCO3 [Example 122, (S)-2-Cyclopropyl-2-((1-(4-methylpyridin-3-yl)-8,9-dihydro-7H-6-oxa-2,9a-diazabenzo[cd]azulen-4-yl)amino)acetamide] | 296 |
| CC[C@H](Oc1cc2c3c(c1)nc(-c1cc(F)c4nc(N)sc4c1)n3CCCCO2)C(N)=O [Example 273, (S)-2-((1-(2-Amino-4-fluorobenzo[d]thiazol-6-yl)-7,8,9,10-tetrahydro-6-oxa-2,10a-diazacycloocta[cd]inden-4-yl)oxy)butanamide] | 0.0494 |
| NC(=O)[C@@H](Nc1cc2c3c(c1)nc(-c1ccc4c(c1)OC(F)(F)O4)n3CCCO2)C1CC1 [Example 113, (S)-2-Cyclopropyl-2-((1-(2,2-difluorobenzo[d][1,3]dioxol-5-yl)-8,9-dihydro-7H-6-oxa-2,9a-diazabenzo[cd]azulen-4-yl)amino)acetamide] | 268 |
| COc1cnc2cc(-c3nc4cc(N[C@H](C(N)=O)C5CC5)cc5c4n3CCCO5)ccc2n1 [Example 173, (S)-2-Cyclopropyl-2-((1-(2-methoxyquinoxalin-6-yl)-8,9-dihydro-7H-6-oxa-2,9a-diazabenzo[cd]azulen-4-yl)amino)acetamide] | 46.5 |
| NC(=O)[C@@H](Nc1cc2c3c(c1)nc(-c1ccn4ncnc4c1)n3CCCO2)C1CC1 [Example 132, (S)-2-((1-([1,2,4]Triazolo[1,5-a]pyridin-7-yl)-8,9-dihydro-7H-6-oxa-2,9a-diazabenzo[cd]azulen-4-yl)amino)-2-cyclopropylacetamide] | 1.6 |
| C[C@@H](Oc1cc2c3c(c1)nc(-c1cc4sc(N)nc4cc1F)n3CCCCO2)C(N)=O (single isomer, unassigned) [Example 278] | 4.6 |
| C[C@@H](C(N)=O)N(C)c1cc2c3c(c1)nc(-c1cc(F)c4oc(N)nc4c1)n3CCCCO2 [Example 264, (S)-2-((1-(2-Amino-7-fluorobenzo[d]oxazol-5-yl)-7,8,9,10-tetrahydro-6-oxa-2,10a-diazacycloocta[cd]inden-4-yl)(methyl)amino)propanamide] | < 0.02 |
| NC(=O)[C@@H](Oc1cc2c3c(c1)nc(-c1cc(F)c4nc(N)sc4c1)n3CCCCO2)C1CC1 (single isomer, unassigned) [Example 280] | < 0.02 |
| NC(=O)[C@@H](Nc1cc2c3c(c1)nc(-c1ccn4ncnc4n1)n3CCCO2)C1CC1 [Example 156, (S)-2-((1-([1,2,4]triazolo[1,5-a]pyrimidin-5-yl)-8,9-dihydro-7H-6-oxa-2,9a-diazabenzo[cd]azulen-4-yl)amino)-2-cyclopropylacetamide] | 0.264 |
| C[C@@H]1Cn2c(-c3ccc4oc(N)nc4c3)nc3cc(O[C@@H](C)C(N)=O)cc(c32)O1 [Example 252, (S)-2-(((R)-2-(2-Aminobenzo[d]oxazol-5-yl)-4-methyl-3,4-dihydro-5-oxa-1,2a-diazaacenaphthylen-7-yl)oxy)propanamide] | 0.221 |
| C[C@H](Oc1cc2c3c(c1)nc(-c1cc(F)c4oc(N)nc4c1)n3CCCCO2)C(N)=O [Example 249, (S)-2-((1-(2-Amino-7-fluorobenzo[d]oxazol-5-yl)-7,8,9,10-tetrahydro-6-oxa-2,10a-diazacycloocta[cd]inden-4-yl)oxy)propanamide] | < 0.02 |
| NC(=O)c1ccc(-c2nc3cc(N[C@H](C(N)=O)C4CC4)cc4c3n2CCCO4)cc1F [Example 188, (S)-4-(4-((2-Amino-1-cyclopropyl-2-oxoethyl)amino)-8,9-dihydro-7H-6-oxa-2,9a-diazabenzo[cd]azulen-1-yl)-2-fluorobenzamide] | 81.4 |
| COc1ncc(-c2nc3cc(N[C@H](C(N)=O)C4CC4)cc4c3n2CCCO4)cn1 [Example 128, (S)-2-cyclopropyl-2-((1-(2-methoxypyrimidin-5-yl)-8,9-dihydro-7H-6-oxa-2,9a-diazabenzo[cd]azulen-4-yl)amino)acetamide] | 73.5 |
| NC(=O)[C@@H]1CCCN1c1cc2c3c(c1)nc(-c1ccc(N4CCNC4=O)cc1)n3CCCO2 [Example 234, (S)-1-(1-(4-(2-Oxoimidazolidin-1-yl)phenyl)-8,9-dihydro-7H-6-oxa-2,9a-diazabenzo[cd]azulen-4-yl)pyrrolidine-2-carboxamide] | 83.7 |
| CC[C@@H](Oc1cc2c3c(c1)nc(-c1ccc(-c4nc[nH]n4)cc1)n3CCCCO2)C(N)=O (single isomer, unassigned) [Example 267] | 1.28 |
| C[C@H](Oc1cc2c3c(c1)nc(-c1ccc4nc(N)sc4c1)n3CCCCO2)C(N)=O [Example 248, (S)-2-((1-(2-Aminobenzo[d]thiazol-6-yl)-7,8,9,10-tetrahydro-6-oxa-2,10a-diazacycloocta[cd]inden-4-yl)oxy)propanamide] | 0.03 |
| C[C@H](Oc1cc2c3c(c1)nc(-c1cnc(-c4ncn[nH]4)c(F)c1)n3CCCCO2)C(N)=O [Example 307, (S)-2-((1-(5-Fluoro-6-(1H-1,2,4-triazol-5-yl)pyridin-3-yl)-7,8,9,10-tetrahydro-6-oxa-2,10a-diazacycloocta[cd]inden-4-yl)oxy)propanamide] | < 0.02 |
| Cn1cc(-c2cc3c4c(c2)nc(-c2ccc5oc(N)nc5c2)n4CCCO3)cn1 [Example 153, 5-(4-(1-Methyl-1H-pyrazol-4-yl)-8,9-dihydro-7H-6-oxa-2,9a-diazabenzo[cd]azulen-1-yl)benzo[d]oxazol-2-amine] | 0.74 |
| NC(=O)[C@@H](Nc1cc2c3c(c1)nc(-c1cnn(C4COC4)c1)n3CCCO2)C1CC1 [Example 210, (S)-2-Cyclopropyl-2-((1-(1-(oxetan-3-yl)-1H-pyrazol-4-yl)-8,9-dihydro-7H-6-oxa-2,9a-diazabenzo[cd]azulen-4-yl)amino)acetamide] | 285 |
| C[C@H](Nc1cc2c3c(c1)nc(-c1cccnc1)n3CCCO2)C(N)=O [Example 108, (S)-2-((1-(Pyridin-3-yl)-8,9-dihydro-7H-6-oxa-2,9a-diazabenzo[cd]azulen-4-yl)amino)propanamide] | 22.1 |
| CC[C@@H](C(N)=O)n1cc(-c2cc3c4c(c2)nc(-c2ccc5oc(N)nc5c2)n4CCCO3)cn1 [Example 217, (S)-2-(4-(1-(2-Aminobenzo[d]oxazol-5-yl)-8,9-dihydro-7H-6-oxa-2,9a-diazabenzo[cd]azulen-4-yl)-1H-pyrazol-1-yl)butanamide] | 0.298 |
| C[C@H](Oc1cc2c3c(c1)nc(-c1ccc4sc(N)nc4c1)n3CCCCO2)C(N)=O (single isomer, unassigned) [Example 276] | 0.113 |
| NC(=O)[C@H](C1CC1)n1cc(-c2cc3c4c(c2)nc(-c2ccc5oc(N)nc5c2)n4CCCO3)cn1 (single isomer, unassigned) [Example 230] | 0.309 |
| NC(=O)[C@@H](Nc1cc2c3c(c1)nc(N1CCC(CO)CC1)n3CCCO2)C1CC1 [Example 126, (S)-2-Cyclopropyl-2-[1-(4-hydroxymethylpiperidin-1-yl)-8,9-dihydro-7H-6-oxa-2,9a-diazabenzo[cd]azulen-4-ylamino]acetamide] | 678 |
| NC(=O)[C@@H](Nc1cc2c3c(c1)nc(-c1ccc(F)cc1F)n3CCCO2)C1CC1 [Example 145, (S)-2-Cyclopropyl-2-((1-(2,4-difluorophenyl)-8,9-dihydro-7H-6-oxa-2,9a-diazabenzo[cd]azulen-4-yl)amino)acetamide] | 382 |
| NC(=O)[C@@H](Nc1cc2c3c(c1)nc(-c1ccc4sc(N)nc4c1)n3CCCO2)C1CC1 [Example 184, (S)-2-((1-(2-Aminobenzo[d]thiazol-5-yl)-8,9-dihydro-7H-6-oxa-2,9a-diazabenzo[cd]azulen-4-yl)amino)-2-cyclopropylacetamide] | 0.491 |
| NC(=O)[C@@H](Nc1cc2c3c(c1)nc(-c1cncs1)n3CCCO2)C1CC1 [Example 136, (S)-2-Cyclopropyl-2-((1-(thiazol-5-yl)-8,9-dihydro-7H-6-oxa-2,9a-diazabenzo[cd]azulen-4-yl)amino)acetamide] | 76.4 |
| NC(=O)[C@@H](Nc1cc2c3c(c1)nc(-c1ccc4oc(N)nc4c1)n3CCO2)C1CC1 [Example 208, (S)-2-((2-(2-Aminobenzo[d]oxazol-5-yl)-3,4-dihydro-5-oxa-1,2a-diazaacenaphthylen-7-yl)amino)-2-cyclopropylacetamide] | < 0.02 |
| C[C@H](Oc1cc2c3c(c1)nc(-c1cc(F)c4oc(N)nc4c1)n3CCCO2)C(N)=O [Example 258, (S)-2-((1-(2-Amino-7-fluorobenzo[d]oxazol-5-yl)-8,9-dihydro-7H-6-oxa-2,9a-diazabenzo[cd]azulen-4-yl)oxy)propanamide] | 0.09 |
